Tests used:
[1] = tested on: non-small-cell lung cancer; triple-negative breast cancer; set-up: method as in earlier work; details: combined with carboplatin and paclitaxel; preliminary results; cited from earlier work
[2] = cited from earlier work
[3] = cited from earlier work; remark: listed apart in the source
[4] = tested on: advanced solid tumors (ovarian, breast carcinoma); assay: Time to disease progression (TTP); format: in vivo, human
Experimental: (§1) Adverse event (AE) severity was assessed according to the National Cancer Institute Common Terminology Criteria for Adverse Events (NCI CTCAE) version 4.0. Tumor evaluations were performed at screening, every 8 weeks after the first administration of study drug, and at the final visit using radiographic measurements from computed tomography or magnetic resonance imaging. Objective tumor responses were evaluated using RECIST version 1.1 criteria. Patients who received one or more doses of veliparib were included in the PK and safety analyses, as well as for evaluation of time to disease progression (TTP). Patients with one or more measurable lesion at baseline were included in the analysis of objective responses.

[5] = tested on: ovarian and breast carcinoma; assay: Objective tumor response (RECIST version 1.1); format: in vivo, human
Experimental: as §1

[6] = Safety: treatment-emergent adverse events (NCI CTCAE version 4.0); format: in vivo, human; details: All cycles
Experimental: as §1

[7] = 16 evaluable patients with breast carcinoma (all BRCA mutation carriers)
[8] = 42 evaluable breast and ovarian carcinoma patients with deleterious BRCA mutations
[9] = 44 evaluable patients with ovarian carcinoma
[10] = Deleterious BRCA mutation, Breast (n = 16)
[11] = Deleterious BRCA mutation, Ovarian (n = 26)
[12] = Deleterious BRCA mutation, Overall (N = 42)

For C[C@]1(c2nc3c(C(N)=O)cccc3[nH]2)CCCN1 [veliparib], the “primary endpoints (overall survival or complete pathologic response)” value [1] is listed as “did not meet their primary endpoints”, the RP2D ([2]; single agent, phase I study) is listed as 400 mg twice-daily (BID) and the “patients experiencing grade 3 or 4 neutropenia or thrombocytopenia” value ([2]; single-agent therapy, phase I and II trials) is listed as 2%. The “patients with dose modifications, predominantly for nausea and vomiting” value ([2]; single-agent therapy) was 78%, the absorption [3] was “rapid absorption” and the elimination [3] was “predominant elimination through urinary excretion of the unchanged drug”. For the same compound, the oral bioavailability [3] was “high oral bioavailability”, the “6-month TTP rate” value ([4]; breast carcinoma (n = 17)) was 53.5% and the “6-month TTP rate” value ([4]; deleterious BRCA mutations, breast carcinoma) was 53.5%. The “6-month TTP rate” value ([4]; deleterious BRCA mutations, ovarian carcinoma) was 35.7%, the “6-month TTP rate” value ([4]; ovarian carcinoma (n = 53)) was 31.8% and the “6-month TTP rate (had not progressed at 6 months)” value ([4]; overall (N = 71)) was 38.1%. For the same compound, the “median TTP” value ([4]; overall population (N = 71)) was 149 days, the “6-month TTP rate” value ([4]; patients with deleterious BRCA mutations) was 43.0% and the “6-month TTP rate” value ([4]; patients without BRCA mutations) was 22.9%. For the same compound, the “6-month TTP rate” value ([4]; unknown BRCA mutation status) was 27.8%, the confirmed partial responses [5, 7] was 25.0% and the “partial response (confirmed and unconfirmed)” value [5, 7] was 62.5%. The confirmed partial responses ([5]; 16 patients with breast carcinoma and deleterious BRCA mutations) was 25.0%, the confirmed partial responses ([5]; 26 patients with ovarian carcinoma and deleterious BRCA mutations) was 11.5% and the confirmed partial responses [5, 8] was 16.7%. For the same compound, the “partial response (confirmed and unconfirmed)” value [5, 8] was 40.5%, the confirmed partial responses [5, 9] was 11.4% and the “partial response (confirmed and unconfirmed)” value [5, 9] was 27.3%. The “confirmed overall ORR” value ([5]; 60 evaluable patients) was 15%, the “overall (confirmed and unconfirmed) ORR” value ([5]; 60 evaluable patients) was 36.7% and the “CR, confirmed” value ([5]; Breast (n = 16)) was 0 n (%). The “ORR (CR + PR), confirmed” value ([5]; Breast (n = 16)) was 4 (25.0)— n/N (%) (95% CI), the “PR, confirmed” value ([5]; Breast (n = 16)) was 4 (25.0) n (%) and the “CR, confirmed” value [5, 10] was 0 n (%). The “ORR (CR + PR), confirmed” value [5, 10] was 4 (25.0) n/N (%), the “PR, confirmed” value [5, 10] was 4 (25.0) n (%) and the “CR, confirmed” value [5, 11] was 0 n (%). For the same compound, the “ORR (CR + PR), confirmed” value [5, 11] was 3 (11.5) n/N (%), the “PR, confirmed” value [5, 11] was 3 (11.5) n (%) and the “CR, confirmed” value [5, 12] was 0 n (%). The “PR, confirmed” value [5, 12] was 7 (16.7) n (%), the “CR, confirmed” value ([5]; Ovarian (n = 44)) was 0 n (%) and the “PR, confirmed” value ([5]; Ovarian (n = 44)) was 5 (11.4) n (%). The “ORR (CR + PR), confirmed” value ([5]; Ovarian (n = 44), measurable lesion at baseline) was 5 (11.4)— n/N (%) (95% CI), the “CR, confirmed” value ([5]; Overall (N = 60)) was 0 n (%) and the “PR, confirmed” value ([5]; Overall (N = 60)) was 9 (15.0) n (%). For the same compound, the “partial response (two confirmed, two unconfirmed)” value ([5]; nine patients with unknown BRCA status and measurable disease, all ovarian carcinoma) was 44.4%, the objective responses ([5]; ovarian carcinoma patients with no BRCA mutation) was “No confirmed and one unconfirmed objective responses” and the “Any SAE” value ([6]; All patients (N = 71)) was 20 (28.2) n (%). For the same compound, the “SAE leading to discontinuation” value ([6]; All patients (N = 71)) was 8 (11.3) n (%), the “SAE leading to dose interruption” value ([6]; All patients (N = 71)) was 14 (19.7) n (%) and the “SAE leading to dose reduction” value ([6]; All patients (N = 71)) was 1 (1.4) n (%). For the same compound, the “TEAE: Any AE” value ([6]; All patients (N = 71)) was 70 (98.6) n (%), the “TEAE: At least possibly related to study drug” value (from here on “TEAE: At least possibly related”) ([6]; All patients (N = 71)) was 60 (84.5) n (%) and the “TEAE: NCI CTCAE grade 3 or 4” value ([6]; All patients (N = 71)) was 28 (39.4) n (%). The “Any SAE” value ([6]; Part 1, extension (n = 24)) was 5 (20.8) n (%), the “SAE leading to discontinuation” value ([6]; Part 1, extension (n = 24)) was 3 (12.5) n (%) and the “SAE leading to dose interruption” value ([6]; Part 1, extension (n = 24)) was 4 (16.7) n (%). The “SAE leading to dose reduction” value ([6]; Part 1, extension (n = 24)) was 0 n (%), the “TEAE: Abdominal pain” value ([6]; Part 1, extension (n = 24)) was 3 (12.5) n (%) and the “TEAE: Anemia” value ([6]; Part 1, extension (n = 24)) was 3 (12.5) n (%). The “TEAE: Any AE” value ([6]; Part 1, extension (n = 24)) was 23 (95.8) n (%), the “TEAE: At least possibly related” value ([6]; Part 1, extension (n = 24)) was 17 (70.8) n (%) and the “TEAE: Constipation” value ([6]; Part 1, extension (n = 24)) was 5 (20.8) n (%). For the same compound, the “TEAE: Decreased appetite” value ([6]; Part 1, extension (n = 24)) was 1 (4.2) n (%), the “TEAE: Diarrhea” value ([6]; Part 1, extension (n = 24)) was 5 (20.8) n (%) and the “TEAE: Fatigue” value ([6]; Part 1, extension (n = 24)) was 7 (29.2) n (%). For the same compound, the “TEAE: NCI CTCAE grade 3 or 4” value ([6]; Part 1, extension (n = 24)) was 7 (29.2) n (%), the “TEAE: Nausea, Grade 1” value ([6]; Part 1, extension (n = 24)) was 11 (45.8) n (%) and the “TEAE: Nausea, Grade 2” value ([6]; Part 1, extension (n = 24)) was 3 (12.5) n (%). The “TEAE: Nausea, Grade 3” value ([6]; Part 1, extension (n = 24)) was 0 n (%), the “TEAE: Urinary tract infection” value ([6]; Part 1, extension (n = 24)) was 7 (29.2) n (%) and the “TEAE: Vomiting” value ([6]; Part 1, extension (n = 24)) was 11 (45.8) n (%). For the same compound, the “TEAE: Vomiting, Grade 1” value ([6]; Part 1, extension (n = 24)) was 11 (45.8) n (%), the “TEAE: Vomiting, Grade 2” value ([6]; Part 1, extension (n = 24)) was 0 n (%) and the “TEAE: Vomiting, Grade 3” value ([6]; Part 1, extension (n = 24)) was 0 n (%). The “Any SAE” value ([6]; Part 2 (n = 35)) was 11 (31.4) n (%), the “SAE leading to discontinuation” value ([6]; Part 2 (n = 35)) was 4 (11.4) n (%) and the “SAE leading to dose interruption” value ([6]; Part 2 (n = 35)) was 6 (17.1) n (%). For the same compound, the “SAE leading to dose reduction” value ([6]; Part 2 (n = 35)) was 1 (2.9) n (%), the “TEAE: Abdominal pain” value ([6]; Part 2 (n = 35)) was 7 (20.0) n (%) and the “TEAE: Anemia” value ([6]; Part 2 (n = 35)) was 10 (28.6) n (%). For the same compound, the “TEAE: Any AE” value ([6]; Part 2 (n = 35)) was 35 (100) n (%), the “TEAE: At least possibly related” value ([6]; Part 2 (n = 35)) was 33 (94.3) n (%) and the “TEAE: Constipation” value ([6]; Part 2 (n = 35)) was 14 (40.0) n (%). The “TEAE: Decreased appetite” value ([6]; Part 2 (n = 35)) was 11 (31.4) n (%), the “TEAE: Diarrhea” value ([6]; Part 2 (n = 35)) was 10 (28.6) n (%) and the “TEAE: Fatigue” value ([6]; Part 2 (n = 35)) was 14 (40.0) n (%). The “TEAE: NCI CTCAE grade 3 or 4” value ([6]; Part 2 (n = 35)) was 17 (48.6) n (%), the “TEAE: Nausea” value ([6]; Part 2 (n = 35)) was 31 (88.6) n (%) and the “TEAE: Nausea, Grade 1” value ([6]; Part 2 (n = 35)) was 24 (68.6) n (%). The “TEAE: Nausea, Grade 2” value ([6]; Part 2 (n = 35)) was 5 (14.3) n (%), the “TEAE: Nausea, Grade 3” value ([6]; Part 2 (n = 35)) was 2 (5.7) n (%) and the “TEAE: Urinary tract infection” value ([6]; Part 2 (n = 35)) was 5 (14.3) n (%). The “TEAE: Vomiting” value ([6]; Part 2 (n = 35)) was 17 (48.6) n (%), the “TEAE: Vomiting, Grade 1” value ([6]; Part 2 (n = 35)) was 13 (37.1) n (%) and the “TEAE: Vomiting, Grade 2” value ([6]; Part 2 (n = 35)) was 3 (8.6) n (%). For the same compound, the “TEAE: Vomiting, Grade 3” value ([6]; Part 2 (n = 35)) was 1 (2.9) n (%), the “Any SAE” value ([6]; Part 3 (n = 12)) was 4 (33.3) n (%) and the “SAE leading to discontinuation” value ([6]; Part 3 (n = 12)) was 1 (8.3) n (%). For the same compound, the “SAE leading to dose interruption” value ([6]; Part 3 (n = 12)) was 4 (33.3) n (%).
